Laboratory results published in PubChem BioAssay (NCI).
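Compound exposure: 48 hours, 5 concentrations, 96-well plates. At the GI50, growth is halved. TGI denotes the concentration required for complete inhibition of growth.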

Columns and labels:
Experiment in all cases: growth of human tumour cells (NCI), 48 h
[1] = tested on: HOP-92 NSCLC
[2] = tested on: CAKI-1 renal
[3] = tested on: HCC-2998 colon
[4] = tested on: K-562 leukemia
[5] = tested on: T-47D breast
[6] = tested on: NCI-H460 lung
[7] = tested on: PC-3 prostate
[8] = tested on: HOP-62 NSCLC
[9] = tested on: SK-MEL-28 melanoma
[10] = tested on: SK-OV-3 ovarian
[11] = tested on: OVCAR-3 ovarian
[12] = tested on: SK-MEL-5 melanoma
[13] = tested on: KM12 colon
[14] = tested on: MDA-MB-435
[15] = tested on: HT29 colon
[16] = tested on: SF-539 CNS
[17] = tested on: OVCAR-8 ovarian
[18] = tested on: SN12C renal
[19] = tested on: NCI/ADR-RES ovarian
[20] = tested on: OVCAR-5 ovarian
[21] = tested on: RPMI-8226 leukemia
[22] = tested on: M14 melanoma
[23] = tested on: RXF 393 renal
[24] = tested on: SNB-19 CNS
[25] = tested on: HS 578T breast
[26] = tested on: NCI-H522 lung
[27] = tested on: NCI-H23 lung
[28] = tested on: A549 NSCLC
[29] = tested on: HCT-116 colon
[30] = tested on: IGROV1 ovarian
[31] = tested on: 786-0 renal
[32] = tested on: SNB-75 CNS
[33] = tested on: LOX IMVI melanoma
[34] = tested on: UACC-257 melanoma
[35] = tested on: MCF7 breast
[36] = tested on: HCT-15 colon
[37] = tested on: UACC-62 melanoma
[38] = tested on: COLO 205 colon
[39] = tested on: CCRF-CEM leukemia
[40] = tested on: SF-295 CNS
[41] = tested on: MOLT-4 leukemia
[42] = tested on: SF-268 CNS
[43] = tested on: OVCAR-4 ovarian
[44] = tested on: SW-620 colon
[45] = tested on: MALME-3M melanoma
[46] = tested on: SK-MEL-2 melanoma
[47] = tested on: TK-10 renal
[48] = tested on: BT-549 breast
[49] = tested on: UO-31 renal
[50] = tested on: HL-60(TB) leukemia
[51] = tested on: ACHN renal
[52] = tested on: SR leukemia
[53] = tested on: DU-145 prostate
[54] = tested on: NCI-H226 lung
[55] = tested on: U251 CNS
[56] = tested on: A498 renal
[57] = tested on: MDA-MB-231 breast

Work on OCc1ccc(N(Cc2ccc(F)cc2)CC2CC2)cc1Cl yielded a GI50 [1] of 1.61 µM, a TGI [1] of 11.3 µM and a GI50 [2] of 6.54 µM. For the same compound, the TGI [2] was 21.9 µM, the GI50 [3] was 8.82 µM and the TGI [3] was 22.4 µM. For the same compound, the GI50 [4] was 3.12 µM, the TGI [4] was 17.8 µM and the GI50 [5] was 0.271 µM. For the same compound, the TGI [5] was 2.86 µM, the GI50 [6] was 0.57 µM and the TGI [6] was 9.47 µM. For the same compound, the GI50 [7] was 12.1 µM, the TGI [7] was 25.7 µM and the GI50 [8] was 3.09 µM. The TGI [8] was 16.2 µM, the GI50 [9] was 13.1 µM and the TGI [9] was 25.9 µM. The GI50 [10] was 10.6 µM, the TGI [10] was 22.7 µM and the GI50 [11] was 1.31 µM. The TGI [11] was 4.94 µM, the GI50 [12] was 3.72 µM and the TGI [12] was 16.6 µM. The GI50 [13] was 12.9 µM, the TGI [13] was 25.8 µM and the GI50 [14] was 15.7 µM. The TGI [14] was 31.2 µM, the GI50 [15] was 6.49 µM and the TGI [15] was 20.3 µM. It also gave a GI50 [16] of 14.7 µM, a TGI [16] of 28.2 µM and a GI50 [17] of 11.8 µM. For the same compound, the TGI [17] was 25.3 µM, the GI50 [18] was 9.04 µM and the TGI [18] was 21.8 µM. For the same compound, the GI50 [19] was 12.1 µM, the TGI [19] was 28.8 µM and the GI50 [20] was 0.191 µM. The TGI [20] was 0.794 µM, the GI50 [21] was 5.47 µM and the TGI [21] was 36 µM. It also gave a GI50 [22] of 14.5 µM, a TGI [22] of 29.8 µM and a GI50 [23] of 1.29 µM. For the same compound, the TGI [23] was 8.48 µM, the GI50 [24] was 12.3 µM and the TGI [24] was 25.4 µM. For the same compound, the GI50 [25] was 14.7 µM, the TGI [25] was 38.9 µM and the GI50 [26] was 11.5 µM. It also gave a TGI [26] of 26.3 µM, a GI50 [27] of 4.74 µM and a TGI [27] of 20.2 µM. For the same compound, the GI50 [28] was 3.16 µM, the TGI [28] was 16.9 µM and the GI50 [29] was 0.254 µM. The TGI [29] was 11 µM, the GI50 [30] was 0.176 µM and the TGI [30] was 1.19 µM. For the same compound, the GI50 [31] was 6.8 µM, the TGI [31] was 21.3 µM and the GI50 [32] was 10.8 µM. It also gave a TGI [32] of 23.1 µM, a GI50 [33] of 13.2 µM and a TGI [33] of 26.3 µM. The GI50 [34] was 0.228 µM, the TGI [34] was 1.03 µM and the GI50 [35] was 0.585 µM. For the same compound, the TGI [35] was 12.6 µM, the GI50 [36] was 10.3 µM and the TGI [36] was 22.9 µM. It also gave a GI50 [37] of 0.263 µM, a TGI [37] of 1.74 µM and a GI50 [38] of 5.4 µM. The TGI [38] was 17.4 µM, the GI50 [39] was 15.6 µM and the TGI [39] was 39.9 µM. It also gave a GI50 [40] of 1.2 µM, a TGI [40] of 11.7 µM and a GI50 [41] of 13.7 µM. For the same compound, the TGI [41] was 34.9 µM, the GI50 [42] was 14.7 µM and the TGI [42] was 28.7 µM. The GI50 [43] was 0.511 µM, the TGI [43] was 7.34 µM and the GI50 [44] was 2.38 µM. The TGI [44] was 16.2 µM, the GI50 [45] was 14.6 µM and the TGI [45] was 29.9 µM. For the same compound, the GI50 [46] was 5.39 µM, the TGI [46] was 19 µM and the GI50 [47] was 0.0609 µM. The TGI [47] was 0.398 µM, the GI50 [48] was 14.3 µM and the TGI [48] was 28.2 µM. It also gave a GI50 [49] of 3.43 µM, a TGI [49] of 15.6 µM and a GI50 [50] of 5.06 µM. For the same compound, the TGI [50] was 26.3 µM, the GI50 [51] was 11.7 µM and the TGI [51] was 24 µM. The GI50 [52] was 13.4 µM, the TGI [52] was 34 µM and the GI50 [53] was 13.3 µM. The TGI [53] was 26.4 µM, the GI50 [54] was 0.0419 µM and the TGI [54] was 0.0943 µM. It also gave a GI50 [55] of 1.48 µM, a TGI [55] of 14 µM and a GI50 [56] of 0.0363 µM. The TGI [56] was 0.154 µM, the GI50 [57] was 11.5 µM and the TGI [57] was 24.3 µM.
For CC(C)C[C@H](NC(=O)Cn1ccc(Nc2ccccc2)cc1=O)B(O)O, the GI50 [1] was 2.49 µM, the TGI [1] was 8.23 µM and the GI50 [2] was 4.02 µM. For the same compound, the TGI [2] was 60.4 µM, the GI50 [3] was 2.02 µM and the TGI [3] was 4.76 µM. For the same compound, the GI50 [4] was 3.67 µM, the TGI [4] was over 100 µM and the GI50 [5] was 1.01 µM. For the same compound, the TGI [5] was 3.38 µM, the GI50 [6] was 8.41 µM and the TGI [6] was 42.5 µM. The GI50 [7] was 5.06 µM, the TGI [7] was 36 µM and the GI50 [8] was 6.23 µM. For the same compound, the TGI [8] was 40.9 µM, the GI50 [9] was 0.665 µM and the TGI [9] was 4.49 µM. The GI50 [10] was 11.5 µM, the TGI [10] was over 100 µM and the GI50 [11] was 0.512 µM. The TGI [11] was 2.78 µM, the GI50 [12] was 0.62 µM and the TGI [12] was 2.88 µM. The GI50 [13] was 3.08 µM, the TGI [13] was 12.4 µM and the GI50 [14] was 0.593 µM. For the same compound, the TGI [14] was 2.29 µM, the GI50 [15] was 1.06 µM and the TGI [15] was 13.2 µM. The GI50 [16] was 0.781 µM, the TGI [16] was 5.81 µM and the GI50 [17] was 5.47 µM. For the same compound, the TGI [17] was over 100 µM, the GI50 [18] was 5.17 µM and the TGI [18] was 28 µM. For the same compound, the GI50 [19] was 65.6 µM, the TGI [19] was over 100 µM and the GI50 [20] was 6.24 µM. For the same compound, the TGI [20] was 90 µM, the GI50 [21] was 0.345 µM and the TGI [21] was 0.949 µM. For the same compound, the GI50 [22] was 1.74 µM, the TGI [22] was 13.7 µM and the GI50 [23] was 1.81 µM. It also gave a TGI [23] of 4.78 µM, a GI50 [24] of 16.6 µM and a TGI [24] of over 100 µM. It also gave a GI50 [25] of 1.86 µM, a TGI [25] of 7.16 µM and a GI50 [26] of 0.932 µM. For the same compound, the TGI [26] was 6.44 µM, the GI50 [27] was 3.45 µM and the TGI [27] was over 100 µM. The GI50 [28] was 8.34 µM, the TGI [28] was over 100 µM and the GI50 [29] was 0.852 µM. The TGI [29] was 5.02 µM, the GI50 [30] was 6.27 µM and the TGI [30] was over 100 µM. The GI50 [31] was 5.55 µM, the TGI [31] was over 100 µM and the GI50 [32] was 4.54 µM. It also gave a TGI [32] of 25.3 µM, a GI50 [33] of 0.645 µM and a TGI [33] of 2.27 µM. For the same compound, the GI50 [34] was 1.3 µM, the TGI [34] was 7.68 µM and the GI50 [35] was 0.427 µM. The TGI [35] was over 100 µM, the GI50 [36] was 8.66 µM and the TGI [36] was over 100 µM. It also gave a GI50 [37] of 2.44 µM, a TGI [37] of 18.1 µM and a GI50 [38] of 8.25 µM. For the same compound, the TGI [38] was over 100 µM, the GI50 [40] was 3.75 µM and the TGI [40] was 40.1 µM. It also gave a GI50 [41] of 0.468 µM, a TGI [41] of 11.7 µM and a GI50 [42] of 2.88 µM. For the same compound, the TGI [42] was 18.6 µM, the GI50 [43] was 5.68 µM and the TGI [43] was over 100 µM. It also gave a GI50 [44] of 2 µM, a TGI [44] of 23.9 µM and a GI50 [45] of 2.08 µM. The TGI [45] was 8.77 µM, the GI50 [46] was 1.81 µM and the TGI [46] was 21.3 µM. The GI50 [47] was 3.28 µM, the TGI [47] was 25.3 µM and the GI50 [48] was 1.19 µM. The TGI [48] was 11.7 µM, the GI50 [49] was 5.59 µM and the TGI [49] was 39.6 µM. It also gave a GI50 [50] of 3.32 µM, a TGI [50] of 72.6 µM and a GI50 [51] of 3.04 µM. It also gave a TGI [51] of over 100 µM, a GI50 [52] of 0.398 µM and a TGI [52] of over 100 µM. The GI50 [53] was 10.7 µM, the TGI [53] was over 100 µM and the GI50 [54] was 0.352 µM. For the same compound, the TGI [54] was 1.47 µM, the GI50 [55] was 5.04 µM and the TGI [55] was over 100 µM. It also gave a GI50 [56] of 1.07 µM, a TGI [56] of 6.78 µM and a GI50 [57] of 3.09 µM. It also gave a TGI [57] of 15.2 µM.
